Experimental findings from US11236354B2, “Glyphosate-n-acetyltransferase (GLYAT) sequences and methods of use” (PIONEER HI-BRED INTERNATIONAL, INC., priority 2013, dated 2022) are described below.

The target of the test is GLYAT variant SEQ ID NO:4 (derived from SEQ ID NO:1 and 2) (Bacillus licheniformis, UniProt Q65LG7, D131E/E14D/E65Q/E67K/E68K/G37R/G38S/I132T/I135A/I15L/I19V/I53V/I91V/K101R/K144R/K58Q/L105M/L26I/L36T/L97I/M75V/R47G/R92K/T33S/T89S/V114A/Y130F/Y31F/Y45F). Nature of the test: Substrate saturation kinetic analysis of purified GLYAT. The conditions noted are these: pH 7.0.

Molecules are shown by their SMILES.

Description: Cells were lysed with BPER (Pierce) containing 1 mM dithiothreitol, 0.2 mg/ml lysozyme, 2 mg/ml protease inhibitor cocktail (Sigma bacterial cell cocktail, P8465) and endonuclease. Lysate supernatants were passed through a column of NHS-activated Agarose (Thermo, #26197) derivatized with coenzyme A. Columns were washed with 25 mM Hepes, pH 7, containing progressively higher concentrations of KCl, then eluted with 25 mM Hepes, 100 mM KCl, 10% ethylene glycol and 1 mM acetyl CoA. Purity as evaluated by polyacrylamide gel electrophoresis was deemed consistently high enough to be assumed to be 100%. Protein concentration was determined with the Bradford assay using a large-scale lot of produced GLYAT protein as standard.
Kinetic parameters for various substrates were obtained using a range of seven substrate concentrations plus a blank containing none of the varied substrate. The non-varied substrate was present at a saturating concentration. Six-microliter aliquots of 50-fold concentrated stock solutions of the varied substrate were placed in a 96-well assay plate (Greiner BioOne UV-Star). Reactions were started with the addition of 294 ul of 25 mM Hepes, pH 7.0, 100 mM KCL, 10% ethylene glycol, the non-varied substrate and 10 to 200 nM enzyme. Absorbance was monitored for one minute with a Spectramax 384 Plus plate reader (Molecular Devices). If the amino acid present at position 30 (29 if alanine is absent at position 2) was cysteine, absorbance was monitored at 235 nm, which directly detects cleavage of the sulfoester bond of acetyl CoA. If the amino acid present at position 30 (29 if alanine is absent at position 2) was isoleucine, 0.5 mM 5,5′-dithiobis-(2-nitrobenzoic acid), which reacts with the coenzyme A thiol generated in the enzyme catalyzed reaction, was included in the reaction mix and absorbance was monitored at 412 nm. Initial rates were processed by the Softmax software to obtain kinetic parameters, using the double-reciprocal transformation.

Take `N[C@@H](CC(=O)O)C(=O)O` [aspartate]: the “Asp as % of glyph (kcat/KM asp / kcat/KM glyph)” value turned out to be 0.210%.
